From article PMC4492758 (Pharmacology Research & Perspectives, 2015)
Values joined by “and” are separate entries in the source; they are usually repeats but may differ in a detail not shown here. Identical values can stand only once. “Also recorded” adds a separate entry of the source. Counter-ions that a name gives are not always drawn. Like-named read-outs stand apart in the source and are kept apart here. Marks after values point to notes of the source that are not given here. Each block holds one molecule with its values, some of them ahead of it.

Legend:
[1] = biological target: rat serotonin transporter (Rattus norvegicus, UniProt P31652); test: Rat SERT binding, [3H]citalopram, rat cerebral cortex membranes
Human adrenergic α1A = Human adrenergic α1A (Homo sapiens, UniProt P35348); test: Off-target radioligand binding assay
Human adrenergic α1B = Human adrenergic α1B (Homo sapiens, UniProt P35368); test: Off-target radioligand binding assay; conditions: read-out: Percentage inhibition at 1 μmol/L
Human adrenergic α2A = Human adrenergic α2A (Homo sapiens, UniProt P08913); test: Off-target radioligand binding assay; conditions: read-out: Percentage inhibition at 1 μmol/L
Human adrenergic α2B = Human adrenergic α2B (Homo sapiens, UniProt P18089); test: Off-target radioligand binding assay; conditions: read-out: Percentage inhibition at 1 μmol/L
Human adrenergic α2C = Human adrenergic α2C (Homo sapiens, UniProt P18825); test: Off-target radioligand binding assay; conditions: read-out: Percentage inhibition at 1 μmol/L
Human adrenergic β1 = Human adrenergic β1 (Homo sapiens, UniProt P08588); test: Off-target radioligand binding assay; conditions: read-out: Percentage inhibition at 1 μmol/L
Human adrenergic β2 = Human adrenergic β2 (Homo sapiens, UniProt P07550); test: Off-target radioligand binding assay; conditions: read-out: Percentage inhibition at 1 μmol/L
Human adrenergic β3 = Human adrenergic β3 (Homo sapiens, UniProt P13945); test: Off-target radioligand binding assay; conditions: read-out: Percentage inhibition at 1 μmol/L
Human dopamine D1 = Human dopamine D1 (Homo sapiens, UniProt P21728); test: Off-target radioligand binding assay; conditions: read-out: Percentage inhibition at 1 μmol/L
Human dopamine D2L = Human dopamine D2L (Homo sapiens, UniProt P14416); test: Off-target radioligand binding assay; conditions: read-out: Percentage inhibition at 1 μmol/L
Human dopamine D3 = Human dopamine D3 (Homo sapiens, UniProt P35462); test: Off-target radioligand binding assay
Rat GABAA = test: Off-target radioligand binding assay; conditions: [3H] Flunitrazepam 0.88 nmol/L
Human histamine H1 = Human histamine H1 (Homo sapiens, UniProt P35367); test: Off-target radioligand binding assay
Human histamine H2 = Human histamine H2 (Homo sapiens, UniProt P25021); test: Off-target radioligand binding assay; conditions: read-out: Percentage inhibition at 1 μmol/L
Human musucarinic M1 = Human musucarinic M1 (Homo sapiens, UniProt P11229); test: Off-target radioligand binding assay; conditions: read-out: Percentage inhibition at 1 μmol/L
Human musucarinic M2 = Human musucarinic M2 (Homo sapiens, UniProt P08172); test: Off-target radioligand binding assay; conditions: read-out: Percentage inhibition at 1 μmol/L
Human opiate δ = Human opiate δ (Homo sapiens, UniProt P41143); test: Off-target radioligand binding assay; conditions: read-out: Percentage inhibition at 1 μmol/L
Human opiate κ = Human opiate κ (Homo sapiens, UniProt P41145); test: Off-target radioligand binding assay; conditions: read-out: Percentage inhibition at 1 μmol/L
Human opiate μ = Human opiate μ (Homo sapiens, UniProt P35372); test: Off-target radioligand binding assay; conditions: read-out: Percentage inhibition at 1 μmol/L
[2] = biological target: guinea pig serotonin 5-HT4 (Cavia porcellus, UniProt O70528); test: Off-target radioligand binding assay; conditions: read-out: Percentage inhibition at 1 μmol/L
Human serotonin 5-HT1B = Human serotonin 5-HT1B (Homo sapiens, UniProt P28222); test: Off-target radioligand binding assay; conditions: read-out: Percentage inhibition at 1 μmol/L
Human serotonin 5-HT2A = Human serotonin 5-HT2A (Homo sapiens, UniProt P28223); test: Off-target radioligand binding assay; conditions: read-out: Percentage inhibition at 1 μmol/L
Human serotonin 5-HT2B = Human serotonin 5-HT2B (Homo sapiens, UniProt P41595); test: Off-target radioligand binding assay
Human serotonin 5-HT2C = Human serotonin 5-HT2C (Homo sapiens, UniProt P28335); test: Off-target radioligand binding assay; conditions: read-out: Percentage inhibition at 1 μmol/L
Human serotonin 5-HT3 = Human serotonin 5-HT3 (Homo sapiens, UniProt P46098); test: Off-target radioligand binding assay; conditions: read-out: Percentage inhibition at 1 μmol/L
Human serotonin 5-HT5A = Human serotonin 5-HT5A (Homo sapiens, UniProt P47898); test: Off-target radioligand binding assay; conditions: read-out: Percentage inhibition at 1 μmol/L
Human serotonin 5-HT6 = Human serotonin 5-HT6 (Homo sapiens, UniProt P50406); test: Off-target radioligand binding assay; conditions: read-out: Percentage inhibition at 1 μmol/L
Human serotonin 5-HT7 = Human serotonin 5-HT7 (Homo sapiens, UniProt P34969); test: Off-target radioligand binding assay
[3] = biological target: pig catechol-O-methyltransferase (Sus scrofa, UniProt Q99028); format: biochemical; conditions: read-out: percent inhibition
[4] = biological target: human monoamine oxidase-A (Homo sapiens, UniProt P21397); test: Off-target enzyme assay, 14C-labeled substrate; format: biochemical; conditions: read-out: percent inhibition
[5] = biological target: human monoamine oxidase -B (Homo sapiens, UniProt P27338); test: Off-target enzyme assay, 14C-labeled substrate; format: biochemical; conditions: read-out: percent inhibition
[6] = Pharmacokinetics of DSP-1053 in male rats; format: in vivo; conditions: Crl:CD(SD), rat, plasma
[7] = test system: extracellular 5-HT levels in the rat frontal cortex; test: Rat microdialysis, extracellular 5-HT; format: in vivo; conditions: for maximum increase of 5-HT extracellular levels, % of baseline value: 100 min after administration, mean ± SEM
[8] = test system: dopamine extracellular levels in the rat frontal cortex; test: Rat microdialysis, extracellular dopamine; format: in vivo; conditions: any dose (1, 3, 10 mg kg^−1 p.o.)
rats [9] = test: Rat forced swimming test; format: in vivo; conditions: vs vehicle
[10] = test system: sham-operated and olfactory bulbectomized rats; test: Olfactory bulbectomy model, emotional scoring; format: in vivo, rat
[11] = test system: sham-operated and olfactory bulbectomized rats; test: Olfactory bulbectomy model, open-field test; format: in vivo, rat
Suncus murinus [12] = test: Evaluation of emesis in Suncus murinus, experiment 1; format: in vivo; conditions: for Number of animals vomited/tested: single dose, 60 min observation; for Total emetic episode: 1 h observation, animals that vomited
Suncus murinus [13] = conditions: 60 mg kg^−1 po, 19 animals per group
rats [14] = test: Conditioned taste aversion test in rats; conditions: 100 mg kg^−1; Day 4, 24 h after administration, vs vehicle
Suncus murinus [15] = conditions: ref Mine et al. [2013], cited from earlier work; for Number of animals vomited/tested: single dose
human 5-HT1A receptor = human 5-HT1A receptor (Homo sapiens, UniProt P08908); test: biochemical; conditions: read-out: I.A. (intrinsic activity), GTPγS binding
[16] = read-out: Percentage inhibition at 1 μmol/L
[17] = olfactory bulbectomized animals, 0.3, 1 and 3 mg/kg, 1- and 2-week administration
[18] = sham-operated animals, 0.3, 1 and 3 mg/kg, 1- and 2-week administration
[19] = 1-week administration, vs vehicle
[20] = sham-operated animals, 2-week administration

Human serotonin 5-HT7, sequence (P34969 whole entry): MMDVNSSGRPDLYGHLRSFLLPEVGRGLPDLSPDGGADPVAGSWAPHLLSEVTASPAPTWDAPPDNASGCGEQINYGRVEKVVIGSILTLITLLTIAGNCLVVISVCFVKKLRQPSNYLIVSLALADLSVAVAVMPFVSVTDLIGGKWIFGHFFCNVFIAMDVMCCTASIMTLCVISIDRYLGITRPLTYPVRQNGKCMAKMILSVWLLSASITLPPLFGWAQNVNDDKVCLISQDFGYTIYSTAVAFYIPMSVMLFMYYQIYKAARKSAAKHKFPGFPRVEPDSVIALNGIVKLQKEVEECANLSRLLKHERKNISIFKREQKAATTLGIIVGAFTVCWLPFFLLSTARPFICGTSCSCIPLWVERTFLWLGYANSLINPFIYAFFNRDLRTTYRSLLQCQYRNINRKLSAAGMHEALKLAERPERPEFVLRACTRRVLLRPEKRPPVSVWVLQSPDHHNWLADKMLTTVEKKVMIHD
Human histamine H1, sequence (P35367 whole entry): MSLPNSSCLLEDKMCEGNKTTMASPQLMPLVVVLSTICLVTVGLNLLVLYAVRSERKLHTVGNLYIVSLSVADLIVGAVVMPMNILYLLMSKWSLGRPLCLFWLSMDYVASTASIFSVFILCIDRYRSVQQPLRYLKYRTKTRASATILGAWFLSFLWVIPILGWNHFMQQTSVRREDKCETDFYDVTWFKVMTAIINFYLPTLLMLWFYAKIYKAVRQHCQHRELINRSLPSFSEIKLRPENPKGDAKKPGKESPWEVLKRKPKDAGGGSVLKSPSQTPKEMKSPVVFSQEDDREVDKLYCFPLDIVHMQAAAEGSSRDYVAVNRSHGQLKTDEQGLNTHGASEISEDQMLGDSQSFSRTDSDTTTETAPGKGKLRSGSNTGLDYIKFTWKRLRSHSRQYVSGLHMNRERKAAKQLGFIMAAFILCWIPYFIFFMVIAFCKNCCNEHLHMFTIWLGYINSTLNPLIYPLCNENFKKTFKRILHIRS
Human dopamine D3, sequence (P35462 whole entry): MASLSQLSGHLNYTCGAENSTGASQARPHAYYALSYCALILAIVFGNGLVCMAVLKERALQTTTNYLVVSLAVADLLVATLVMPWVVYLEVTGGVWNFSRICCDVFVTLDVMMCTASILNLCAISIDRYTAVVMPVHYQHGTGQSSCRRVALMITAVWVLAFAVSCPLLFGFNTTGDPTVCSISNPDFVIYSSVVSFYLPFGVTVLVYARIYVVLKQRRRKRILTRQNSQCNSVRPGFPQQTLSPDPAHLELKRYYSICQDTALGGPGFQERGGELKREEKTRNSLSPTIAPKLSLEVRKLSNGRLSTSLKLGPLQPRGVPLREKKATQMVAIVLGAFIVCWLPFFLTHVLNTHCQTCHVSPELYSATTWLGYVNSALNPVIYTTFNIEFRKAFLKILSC
Human serotonin 5-HT2B, sequence (P41595 whole entry): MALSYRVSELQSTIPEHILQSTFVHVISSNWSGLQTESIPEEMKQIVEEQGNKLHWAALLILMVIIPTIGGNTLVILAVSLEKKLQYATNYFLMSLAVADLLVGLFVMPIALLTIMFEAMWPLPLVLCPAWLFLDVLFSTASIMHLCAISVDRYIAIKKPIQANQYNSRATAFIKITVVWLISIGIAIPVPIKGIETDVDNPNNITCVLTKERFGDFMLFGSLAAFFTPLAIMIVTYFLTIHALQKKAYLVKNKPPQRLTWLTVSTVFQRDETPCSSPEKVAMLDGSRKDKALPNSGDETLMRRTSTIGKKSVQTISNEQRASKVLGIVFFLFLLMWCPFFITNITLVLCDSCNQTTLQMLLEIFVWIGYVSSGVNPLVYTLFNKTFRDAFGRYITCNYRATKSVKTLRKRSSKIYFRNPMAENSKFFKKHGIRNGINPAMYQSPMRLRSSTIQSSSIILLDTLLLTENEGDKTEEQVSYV
Human adrenergic α1A, sequence (P35348 whole entry): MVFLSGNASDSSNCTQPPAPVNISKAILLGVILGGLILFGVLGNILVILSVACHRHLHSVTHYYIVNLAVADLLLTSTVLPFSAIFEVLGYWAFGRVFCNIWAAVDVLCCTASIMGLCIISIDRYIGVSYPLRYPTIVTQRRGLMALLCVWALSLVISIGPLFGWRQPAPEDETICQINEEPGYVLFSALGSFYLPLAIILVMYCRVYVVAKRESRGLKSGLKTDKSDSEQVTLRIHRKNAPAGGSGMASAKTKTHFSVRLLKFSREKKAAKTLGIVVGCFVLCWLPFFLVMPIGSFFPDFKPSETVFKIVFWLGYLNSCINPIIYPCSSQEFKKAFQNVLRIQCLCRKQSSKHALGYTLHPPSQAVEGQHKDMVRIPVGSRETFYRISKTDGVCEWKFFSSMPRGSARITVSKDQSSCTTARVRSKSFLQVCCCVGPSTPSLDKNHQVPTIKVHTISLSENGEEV
human monoamine oxidase -B, sequence (P27338 whole entry): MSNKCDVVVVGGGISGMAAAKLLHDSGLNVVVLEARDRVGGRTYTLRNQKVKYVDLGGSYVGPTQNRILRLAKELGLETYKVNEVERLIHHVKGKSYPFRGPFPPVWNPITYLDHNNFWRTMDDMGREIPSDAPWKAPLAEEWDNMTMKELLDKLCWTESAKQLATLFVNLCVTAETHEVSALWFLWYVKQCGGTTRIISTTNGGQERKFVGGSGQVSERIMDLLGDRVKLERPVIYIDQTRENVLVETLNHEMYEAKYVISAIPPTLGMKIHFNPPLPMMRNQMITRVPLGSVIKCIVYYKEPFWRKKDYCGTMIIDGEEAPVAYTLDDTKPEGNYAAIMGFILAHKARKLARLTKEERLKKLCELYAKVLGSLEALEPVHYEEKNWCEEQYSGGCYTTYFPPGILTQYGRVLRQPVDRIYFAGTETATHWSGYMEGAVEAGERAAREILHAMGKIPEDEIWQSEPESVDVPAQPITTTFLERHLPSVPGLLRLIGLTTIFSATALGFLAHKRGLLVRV
Human adrenergic β2, sequence (P07550 whole entry): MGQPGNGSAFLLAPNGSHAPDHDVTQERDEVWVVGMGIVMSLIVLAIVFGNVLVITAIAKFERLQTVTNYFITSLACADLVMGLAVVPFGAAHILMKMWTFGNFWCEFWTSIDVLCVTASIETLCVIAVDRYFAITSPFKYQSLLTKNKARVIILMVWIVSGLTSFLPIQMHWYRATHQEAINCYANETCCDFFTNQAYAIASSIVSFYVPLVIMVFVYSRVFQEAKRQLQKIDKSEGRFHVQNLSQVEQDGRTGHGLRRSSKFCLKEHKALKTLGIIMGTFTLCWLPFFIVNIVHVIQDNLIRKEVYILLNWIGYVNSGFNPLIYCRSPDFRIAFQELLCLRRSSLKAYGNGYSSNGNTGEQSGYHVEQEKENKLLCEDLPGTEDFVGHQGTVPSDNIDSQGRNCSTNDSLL
Human opiate δ, sequence (P41143 whole entry): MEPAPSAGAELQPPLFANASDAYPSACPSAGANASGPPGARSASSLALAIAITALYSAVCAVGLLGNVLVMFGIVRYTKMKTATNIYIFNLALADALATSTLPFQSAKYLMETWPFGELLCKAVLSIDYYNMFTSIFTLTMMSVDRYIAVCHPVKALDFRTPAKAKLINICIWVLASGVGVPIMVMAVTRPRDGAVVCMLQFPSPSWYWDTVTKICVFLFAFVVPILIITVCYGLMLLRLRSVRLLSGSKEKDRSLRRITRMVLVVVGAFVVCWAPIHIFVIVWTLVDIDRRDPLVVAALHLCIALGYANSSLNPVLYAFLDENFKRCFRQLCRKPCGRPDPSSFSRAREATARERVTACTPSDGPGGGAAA
rat serotonin transporter, sequence (P31652 whole entry): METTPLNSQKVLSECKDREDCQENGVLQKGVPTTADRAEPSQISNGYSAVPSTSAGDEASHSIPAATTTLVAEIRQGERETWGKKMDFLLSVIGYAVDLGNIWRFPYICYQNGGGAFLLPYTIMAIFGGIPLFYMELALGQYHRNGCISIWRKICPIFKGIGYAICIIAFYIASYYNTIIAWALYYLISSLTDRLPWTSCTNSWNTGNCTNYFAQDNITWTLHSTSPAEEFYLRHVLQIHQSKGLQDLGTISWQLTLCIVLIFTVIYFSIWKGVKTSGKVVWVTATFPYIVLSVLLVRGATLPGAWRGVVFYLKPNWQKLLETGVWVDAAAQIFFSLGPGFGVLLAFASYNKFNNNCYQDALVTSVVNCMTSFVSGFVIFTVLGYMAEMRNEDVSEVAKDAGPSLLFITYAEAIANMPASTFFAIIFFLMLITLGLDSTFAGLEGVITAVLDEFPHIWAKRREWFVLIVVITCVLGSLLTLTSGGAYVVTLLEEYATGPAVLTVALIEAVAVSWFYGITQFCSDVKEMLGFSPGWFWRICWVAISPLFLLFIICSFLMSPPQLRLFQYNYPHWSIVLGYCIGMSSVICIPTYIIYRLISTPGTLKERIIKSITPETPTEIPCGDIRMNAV
Human adrenergic α2C, sequence (P18825 whole entry): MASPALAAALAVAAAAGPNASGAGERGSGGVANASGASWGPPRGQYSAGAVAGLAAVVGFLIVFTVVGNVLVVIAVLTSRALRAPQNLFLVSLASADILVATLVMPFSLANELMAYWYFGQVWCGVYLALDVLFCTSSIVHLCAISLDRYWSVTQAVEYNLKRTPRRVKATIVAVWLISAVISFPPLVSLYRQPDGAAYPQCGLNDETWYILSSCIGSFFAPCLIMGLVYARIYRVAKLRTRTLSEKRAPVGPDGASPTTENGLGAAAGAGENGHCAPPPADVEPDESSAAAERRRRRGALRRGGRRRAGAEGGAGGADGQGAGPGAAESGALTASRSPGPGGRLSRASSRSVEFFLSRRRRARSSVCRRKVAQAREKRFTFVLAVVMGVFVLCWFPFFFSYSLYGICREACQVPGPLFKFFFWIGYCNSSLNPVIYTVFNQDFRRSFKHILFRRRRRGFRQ
pig catechol-O-methyltransferase, sequence (Q99028 whole entry): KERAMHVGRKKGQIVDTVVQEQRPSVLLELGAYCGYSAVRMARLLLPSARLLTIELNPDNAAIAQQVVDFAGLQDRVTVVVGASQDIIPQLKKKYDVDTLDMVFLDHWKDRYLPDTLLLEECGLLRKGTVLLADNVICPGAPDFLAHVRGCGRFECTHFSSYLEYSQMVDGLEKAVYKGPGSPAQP

Structure (SMILES): COCCOc1cc(CC2CCN(CCc3ccc4c(c3)C(=O)CCO4)CC2)ccc1Br.O=S(=O)(O)c1ccccc1 [DSP-1053, 6-(2-{4-[4-Bromo-3-(2-methoxyethoxy)benzyl]piperidin-1-yl}ethyl)-2,3-dihydro-4H-chromen-4-one benzenesulfonate]
Ki [1]: 0.489 ± 0.039 nM | Ki (Human adrenergic α1A): 528 ± 45 nM | inhibition at 1 µM (Human adrenergic α1A; [16]): 57% | inhibition at 1 µM (Human adrenergic α1B): 1% | inhibition at 1 µM (Human adrenergic α2A): 26% | inhibition at 1 µM (Human adrenergic α2B): 6% | inhibition at 1 µM (Human adrenergic α2C): 41% | inhibition at 1 µM (Human adrenergic β1): 14% | inhibition at 1 µM (Human adrenergic β2): 22% | inhibition at 1 µM (Human adrenergic β3): 19% | inhibition at 1 µM (Human dopamine D1): 4% | inhibition at 1 µM (Human dopamine D2L): 35% | Ki (Human dopamine D3): 249 ± 21 nM | inhibition at 1 µM (Human dopamine D3; [16]): 65% | Percentage inhibition at 1 μmol/L (Rat GABAA): 8% | Ki (Human histamine H1): 7.46 ± 0.2 nM | inhibition at 1 µM (Human histamine H1; [16]): 93% | inhibition at 1 µM (Human histamine H2): 37% | inhibition at 1 µM (Human musucarinic M1): 9% | inhibition at 1 µM (Human musucarinic M2): 21% | inhibition at 1 µM (Human opiate δ): 10% | inhibition at 1 µM (Human opiate κ): 0% | inhibition at 1 µM (Human opiate μ): 2% | inhibition at 1 µM [2]: 26% | inhibition at 1 µM (Human serotonin 5-HT1B): 47% | inhibition at 1 µM (Human serotonin 5-HT2A): 35% | Ki (Human serotonin 5-HT2B): 117 ± 28 nM | inhibition at 1 µM (Human serotonin 5-HT2B; [16]): 79% | inhibition at 1 µM (Human serotonin 5-HT2C): 20% | inhibition at 1 µM (Human serotonin 5-HT3): 0% | inhibition at 1 µM (Human serotonin 5-HT5A): 2% | inhibition at 1 µM (Human serotonin 5-HT6): 14% | Ki (Human serotonin 5-HT7): 288 ± 35 nM | inhibition at 1 µM (Human serotonin 5-HT7; [16]): 73% | inhibition at 1 µM [3]: 0% | inhibition at 1 µM [4]: 5.28% | inhibition at 1 µM [5]: 0.19% | clearance ([6]; iv, 1 mg/kg): 57.6 mL/min/kg | Tmax ([6]; po, 10 mg/kg): ≤ 1 h | maximum increase of 5-HT extracellular levels, % of baseline value ([7]; 3 mg kg^−1 p.o.): 180 ± 25.9% | maximum increase of 5-HT extracellular levels, % of baseline value ([7]; 10 mg kg^−1 p.o.): 264 ± 58.0% | extracellular 5-HT levels ([7]; given once at 3 and 10 mg kg^−1): dose-dependently increased | dopamine extracellular levels in the rat frontal cortex [8]: did not affect | immobility time (rats [9]; 2-week consecutive administration, 1 mg kg^−1 p.o.): significantly decreased | immobility time (rats [9]; 2-week consecutive administration, 1 mg kg^−1 p.o., listed as DSR-1053): significantly reduced | emotional scores [10, 17]: reduced; also recorded: significant decrease | emotional scores [10, 18]: no effect | number of line crosses [11, 17]: reduced; also recorded: significant decrease | number of line crosses [11, 18]: no effect | Number of animals vomited/tested (Suncus murinus [12]; 10 mg kg^−1 po): 0 and 0/6 | Number of animals vomited/tested (Suncus murinus [12]; 30 mg kg^−1 po): 1 and 1/6 | Total emetic episode (Suncus murinus [12]; 30 mg kg^−1 po): 2 | Number of animals vomited/tested (Suncus murinus [12]; 60 mg kg^−1 po): 3 and 3/6 | Total emetic episode (Suncus murinus [12]; 60 mg kg^−1 po, mean ± SEM): 5.3 ± 1.0 | number of animals that showed emesis on the first day, of 19 animals (Suncus murinus [13]): 9 | saccharin consumption (rats [14]): significantly inhibited

Structure (SMILES): Fc1ccc([C@@H]2CCNC[C@H]2COc2ccc3c(c2)OCO3)cc1 [Paroxetine, paroxetine hydrochloride, reference compound]
immobility time (rats [9]; 2-week administration): no effect | immobility time (rats [9]; 3-week administration, 3 and 10 mg kg^−1 p.o.): reduced immobility time | emotional scores [10, 19]: did not alter | emotional scores ([10]; olfactory bulbectomized animals, 3 and 10 mg/kg, 2-week administration): significant decrease | emotional scores [10, 20]: no effect | number of line crosses [11, 19]: did not alter | number of line crosses ([11]; olfactory bulbectomized animals, 10 mg/kg, 2-week administration): significant decrease | number of line crosses [11, 20]: no effect | number of animals that showed emesis on the first day, of 19 animals (Suncus murinus [13]): 12 | Number of animals vomited/tested (Suncus murinus [15]; 10 mg kg^−1 po): 0/6 | Number of animals vomited/tested (Suncus murinus [15]; 10 mg kg^−1 po, listed as paroxetine): 0 | Number of animals vomited/tested (Suncus murinus [15]; 30 mg kg^−1 po): 2/6 | Number of animals vomited/tested (Suncus murinus [15]; 30 mg kg^−1 po, listed as paroxetine): 2 | Total emetic episode (Suncus murinus [15]; 30 mg kg^−1 po, 1 h observation, animals that vomited): 6.8 | Number of animals vomited/tested (Suncus murinus [15]; 60 mg kg^−1 po): 6/6 ^* | Number of animals vomited/tested (Suncus murinus [15]; 60 mg kg^−1 po, listed as paroxetine): 6

Emax (human 5-HT1A receptor): 13.3 ± 3.8%
Structure (SMILES): CC(C)NCC(O)COc1cccc2[nH]ccc12 (stereo not shown) [Pindolol, pindolol]
